These results are taken from patent publication US20230416232A1, “PYRIMIDINE COMPOUNDS, COMPOSITIONS, AND MEDICINAL APPLICATIONS THEREOF” (Blueprint Medicines Corporation, priority 2020, published 2023).

Common to all, as to assay type: cell-based
Experiment [1] has as its target EGFR (H773insNPH) expressing Ba/F3 stable cell line (Homo sapiens, UniProt P00533, DUP771-773, cells depend on it). Kind of experiment: Cellular proliferation (Alamar Blue) assay, EGFR (H773insNPH) Ba/F3. The note with it: 72 hr, read-out: NPH IC50. As for the experimental part:
Cell line details: • 1. EGFR(D770_N771insSVD) expressing Ba/F3 stable cell line • 2. EGFR (A767_dupASV) expressing Ba/F3 stable cell line • 3. A431 cells • 4. EGFR (H773insNPH) expressing Ba/F3 stable cell line • 5. HER2 (A775_G776insYVMA) expressing Ba/F3 stable cell line
• 1. Seed cells at 5000 for A431 and 15,000 cells for Ba/F3 in 100 μL/well in complete media (for A431: DMEM with 10% FBS and for Ba/F3 cells: RPMI with 10% FBS) in 96-well tissue culture plate. Leave outer wells without cells for background measurements. Incubate at 37 degree Celsius in 5% CO2 humidified incubator for 16-18 hours. • 2. Add 0.025 ml of 5X concentration compound dilution or DMSO control. Final compound concentration range is 10-0.0005 μM prepared in 3-fold serial dilutions. Incubate for 72 hr at 37 degree Celsius in 5% CO2 humidified incubator. • 3. Add 0.0125 ml Alamar Blue™ reagent to each well with multi-channel pipette and tap gently on each side of the plate to mix. Incubate for 3 hours at 37 degree Celsius in 5% CO2 humidified incubator. • 4. […] Data analysis was performed using XLfit 5.5.0.5.

The target of experiment [2] is EGFR(D770_N771insSVD) expressing Ba/F3 stable cell line (Homo sapiens, UniProt P00533, DUP768-770, cells depend on it). The experiment can be described thus: Cellular proliferation (Alamar Blue) assay, EGFR(D770_N771insSVD) Ba/F3. The note with it: 72 hr, read-out: D770 IC50. The essentials: (§1)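 Ba/F3 cells (15,000/well, RPMI + 10% FBS) or A431 cells (5000/well, DMEM + 10% FBS) were seeded for 16-18 h at 37 °C, then treated 72 h with compound at a final 10-0.0005 μM (3-fold dilutions). Alamar Blue was added for 3 h before read-out.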
On the technique in general: Alamar Blue is a resazurin reagent that responds to reducing activity.

Another experiment deals with A431 cells. The experiment can be described thus: Cellular proliferation (Alamar Blue) assay, A431 cells. The following applies: Homo sapiens, A-431, 72 h, A431 cells; 72 hr; Alamar Blue; read-out: A431 IC50. An outline of the steps:
as §1

Experiment [3] concerns the target EGFR (A767_dupASV) expressing Ba/F3 stable cell line (Homo sapiens, UniProt P00533, DUP767-769, cells depend on it). The experiment can be described thus: Cellular proliferation (Alamar Blue) assay, EGFR (A767_dupASV) Ba/F3. The following applies: 72 hr, read-out: A767 IC50. An outline of the steps:
as §1

Experiment [4] has as its target HER2 (A775_G776insYVMA) expressing Ba/F3 stable cell line (Homo sapiens, UniProt P04626, DUP772-775, cells depend on it). The experiment can be described thus: Cellular proliferation (Alamar Blue) assay, HER2 (A775_G776insYVMA) Ba/F3. The note with it: HER2 (A775_G776insYVMA) Ba/F3 cells; 72 hr; Alamar Blue; read-out: YVMA IC50. An outline of the steps: as §1

EGFR(D770_N771insSVD) expressing Ba/F3 stable cell line, sequence (P00533 with tags, fused parts or gaps DUP768-770): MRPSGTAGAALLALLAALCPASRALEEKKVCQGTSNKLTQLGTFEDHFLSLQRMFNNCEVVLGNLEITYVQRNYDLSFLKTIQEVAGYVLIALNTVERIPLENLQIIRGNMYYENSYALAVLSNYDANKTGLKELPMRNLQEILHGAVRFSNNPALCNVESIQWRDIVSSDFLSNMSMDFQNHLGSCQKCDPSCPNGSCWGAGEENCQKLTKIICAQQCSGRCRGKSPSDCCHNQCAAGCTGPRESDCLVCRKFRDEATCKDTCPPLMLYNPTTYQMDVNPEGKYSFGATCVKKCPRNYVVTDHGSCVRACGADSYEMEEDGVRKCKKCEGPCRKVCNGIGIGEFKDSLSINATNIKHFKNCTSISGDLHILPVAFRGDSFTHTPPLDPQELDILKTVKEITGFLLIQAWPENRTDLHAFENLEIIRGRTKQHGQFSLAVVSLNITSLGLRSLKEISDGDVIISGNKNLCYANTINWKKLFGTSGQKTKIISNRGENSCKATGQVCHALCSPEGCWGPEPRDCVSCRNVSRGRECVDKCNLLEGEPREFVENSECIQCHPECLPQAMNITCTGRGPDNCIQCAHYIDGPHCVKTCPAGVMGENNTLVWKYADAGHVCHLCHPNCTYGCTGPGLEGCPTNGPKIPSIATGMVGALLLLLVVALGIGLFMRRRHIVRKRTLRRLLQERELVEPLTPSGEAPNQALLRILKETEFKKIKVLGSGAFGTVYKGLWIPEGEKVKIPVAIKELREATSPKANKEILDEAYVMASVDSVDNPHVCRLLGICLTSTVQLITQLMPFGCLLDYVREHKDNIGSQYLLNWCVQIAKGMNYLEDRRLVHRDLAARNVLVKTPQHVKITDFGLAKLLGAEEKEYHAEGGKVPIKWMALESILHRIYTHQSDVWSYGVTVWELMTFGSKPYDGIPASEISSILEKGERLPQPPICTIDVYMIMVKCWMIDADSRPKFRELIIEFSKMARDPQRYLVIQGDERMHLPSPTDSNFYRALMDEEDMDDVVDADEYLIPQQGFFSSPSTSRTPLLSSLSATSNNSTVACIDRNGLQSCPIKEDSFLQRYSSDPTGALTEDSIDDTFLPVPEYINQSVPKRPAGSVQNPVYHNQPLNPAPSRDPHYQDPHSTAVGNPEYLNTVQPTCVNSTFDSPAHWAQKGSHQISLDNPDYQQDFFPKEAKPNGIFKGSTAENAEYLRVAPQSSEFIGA
EGFR (H773insNPH) expressing Ba/F3 stable cell line, sequence (P00533 with tags, fused parts or gaps DUP771-773): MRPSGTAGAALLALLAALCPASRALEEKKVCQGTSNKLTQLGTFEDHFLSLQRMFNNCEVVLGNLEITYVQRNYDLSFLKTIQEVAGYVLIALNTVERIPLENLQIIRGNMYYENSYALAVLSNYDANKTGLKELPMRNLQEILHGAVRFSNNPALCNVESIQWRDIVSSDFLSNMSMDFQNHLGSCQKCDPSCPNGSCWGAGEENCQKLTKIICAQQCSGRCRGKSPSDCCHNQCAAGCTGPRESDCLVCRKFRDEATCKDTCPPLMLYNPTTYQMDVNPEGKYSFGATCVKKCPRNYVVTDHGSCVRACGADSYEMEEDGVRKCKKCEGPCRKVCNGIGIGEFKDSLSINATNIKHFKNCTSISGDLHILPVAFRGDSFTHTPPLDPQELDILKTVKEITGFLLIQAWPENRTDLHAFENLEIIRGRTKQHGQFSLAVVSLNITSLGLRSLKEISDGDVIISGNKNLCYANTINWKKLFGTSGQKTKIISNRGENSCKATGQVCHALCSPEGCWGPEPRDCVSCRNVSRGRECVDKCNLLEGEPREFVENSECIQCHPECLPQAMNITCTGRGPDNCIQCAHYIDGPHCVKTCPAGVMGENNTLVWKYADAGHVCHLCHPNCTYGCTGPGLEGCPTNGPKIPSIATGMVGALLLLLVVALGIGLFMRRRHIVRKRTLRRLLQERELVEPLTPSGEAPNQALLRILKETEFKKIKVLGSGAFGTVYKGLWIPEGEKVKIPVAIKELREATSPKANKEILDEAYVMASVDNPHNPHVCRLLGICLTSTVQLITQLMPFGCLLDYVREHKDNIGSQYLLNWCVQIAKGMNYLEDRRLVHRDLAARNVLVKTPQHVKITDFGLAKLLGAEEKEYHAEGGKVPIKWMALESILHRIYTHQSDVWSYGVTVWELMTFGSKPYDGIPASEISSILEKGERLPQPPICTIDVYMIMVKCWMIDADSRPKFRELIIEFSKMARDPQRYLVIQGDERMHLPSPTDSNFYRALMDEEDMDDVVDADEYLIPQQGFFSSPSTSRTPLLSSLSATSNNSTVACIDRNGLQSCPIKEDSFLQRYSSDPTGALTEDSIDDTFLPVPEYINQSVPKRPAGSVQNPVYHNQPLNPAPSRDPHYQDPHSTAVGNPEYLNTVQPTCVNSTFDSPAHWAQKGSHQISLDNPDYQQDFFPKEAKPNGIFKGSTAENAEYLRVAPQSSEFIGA
EGFR (A767_dupASV) expressing Ba/F3 stable cell line, sequence (P00533 with tags, fused parts or gaps DUP767-769): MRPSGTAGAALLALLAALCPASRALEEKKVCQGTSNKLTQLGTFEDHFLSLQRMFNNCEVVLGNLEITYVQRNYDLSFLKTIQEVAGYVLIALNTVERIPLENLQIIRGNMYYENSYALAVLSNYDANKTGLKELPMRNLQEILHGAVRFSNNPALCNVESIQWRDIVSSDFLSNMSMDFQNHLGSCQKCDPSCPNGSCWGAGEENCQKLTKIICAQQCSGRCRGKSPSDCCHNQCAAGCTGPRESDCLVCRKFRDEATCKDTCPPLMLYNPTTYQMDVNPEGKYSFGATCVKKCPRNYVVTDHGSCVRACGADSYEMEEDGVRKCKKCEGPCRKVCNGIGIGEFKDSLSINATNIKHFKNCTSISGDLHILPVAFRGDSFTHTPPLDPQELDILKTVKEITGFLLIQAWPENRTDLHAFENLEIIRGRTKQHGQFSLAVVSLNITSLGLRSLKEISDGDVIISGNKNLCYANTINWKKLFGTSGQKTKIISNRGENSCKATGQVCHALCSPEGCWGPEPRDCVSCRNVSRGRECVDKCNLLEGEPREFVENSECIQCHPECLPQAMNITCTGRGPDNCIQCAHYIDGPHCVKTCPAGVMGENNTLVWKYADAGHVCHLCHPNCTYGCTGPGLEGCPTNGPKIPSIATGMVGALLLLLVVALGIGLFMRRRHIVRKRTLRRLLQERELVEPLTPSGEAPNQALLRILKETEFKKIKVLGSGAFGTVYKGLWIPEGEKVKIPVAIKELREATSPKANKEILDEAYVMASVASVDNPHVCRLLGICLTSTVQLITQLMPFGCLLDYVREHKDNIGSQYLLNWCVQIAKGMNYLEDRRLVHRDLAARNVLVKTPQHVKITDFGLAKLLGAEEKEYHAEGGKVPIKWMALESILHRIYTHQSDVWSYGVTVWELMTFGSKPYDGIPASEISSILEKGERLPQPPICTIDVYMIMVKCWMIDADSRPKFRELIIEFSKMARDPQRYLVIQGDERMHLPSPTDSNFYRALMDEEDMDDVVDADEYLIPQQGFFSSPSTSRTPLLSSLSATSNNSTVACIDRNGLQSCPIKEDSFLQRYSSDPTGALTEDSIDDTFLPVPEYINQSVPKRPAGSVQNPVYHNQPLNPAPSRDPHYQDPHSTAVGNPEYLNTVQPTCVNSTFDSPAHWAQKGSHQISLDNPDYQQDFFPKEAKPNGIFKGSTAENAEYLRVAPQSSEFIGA
HER2 (A775_G776insYVMA) expressing Ba/F3 stable cell line, sequence (P04626 with tags, fused parts or gaps DUP772-775): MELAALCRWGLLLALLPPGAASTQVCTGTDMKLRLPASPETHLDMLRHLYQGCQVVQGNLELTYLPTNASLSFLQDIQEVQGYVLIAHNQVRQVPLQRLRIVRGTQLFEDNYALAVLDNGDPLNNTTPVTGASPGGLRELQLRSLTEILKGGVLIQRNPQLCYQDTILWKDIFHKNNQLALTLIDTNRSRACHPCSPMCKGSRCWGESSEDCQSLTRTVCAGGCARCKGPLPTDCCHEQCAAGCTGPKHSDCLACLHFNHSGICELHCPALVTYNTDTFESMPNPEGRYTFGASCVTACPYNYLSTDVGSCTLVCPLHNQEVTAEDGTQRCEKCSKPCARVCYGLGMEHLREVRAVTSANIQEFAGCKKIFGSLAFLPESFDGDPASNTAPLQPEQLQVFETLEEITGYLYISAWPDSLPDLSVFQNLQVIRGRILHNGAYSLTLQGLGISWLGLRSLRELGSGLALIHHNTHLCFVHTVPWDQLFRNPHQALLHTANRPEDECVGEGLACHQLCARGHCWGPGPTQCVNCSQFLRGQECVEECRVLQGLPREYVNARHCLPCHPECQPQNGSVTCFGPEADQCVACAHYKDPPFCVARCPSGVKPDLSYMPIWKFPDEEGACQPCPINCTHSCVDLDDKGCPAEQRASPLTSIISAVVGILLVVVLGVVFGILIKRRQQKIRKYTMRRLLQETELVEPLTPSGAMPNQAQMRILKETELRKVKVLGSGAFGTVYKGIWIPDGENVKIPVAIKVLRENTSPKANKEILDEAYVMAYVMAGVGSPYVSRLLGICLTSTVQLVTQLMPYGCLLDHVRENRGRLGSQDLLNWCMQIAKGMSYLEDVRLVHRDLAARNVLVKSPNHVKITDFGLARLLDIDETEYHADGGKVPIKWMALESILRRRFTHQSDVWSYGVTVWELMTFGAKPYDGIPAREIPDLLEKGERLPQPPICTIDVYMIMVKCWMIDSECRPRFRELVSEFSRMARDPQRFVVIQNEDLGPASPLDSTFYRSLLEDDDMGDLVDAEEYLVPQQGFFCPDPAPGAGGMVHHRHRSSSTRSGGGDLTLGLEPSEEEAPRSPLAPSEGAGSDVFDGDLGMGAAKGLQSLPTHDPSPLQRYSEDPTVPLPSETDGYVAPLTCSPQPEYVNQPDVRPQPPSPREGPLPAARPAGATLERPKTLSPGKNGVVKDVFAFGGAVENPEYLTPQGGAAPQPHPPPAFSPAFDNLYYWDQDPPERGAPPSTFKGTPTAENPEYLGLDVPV

What is called IC50 is the midpoint of a concentration-inhibition curve. As to `C=CC(=O)Nc1ccc(F)c(Nc2nc(Nc3cnn(C)c3)ncc2-c2ccc(OC)c(F)c2)c1` [Compound 1, N-(4-fluoro-3-((5-(3-fluoro-4-methoxyphenyl)-2-((1-methyl-1H-pyrazol-4-yl)amino)pyrimidin-4-yl)amino)phenyl)acrylamide], the GI50 in experiment [1] was 36 nM; in experiment [2] it was 36 nM; in experiment [3], 36 nM; in experiment [4] it was 91 nM. Besides, in the experiment on A431 cells, the IC50 is 269 nM.

Consider `C=CC(=O)Nc1ccc(F)c(Nc2nc(Nc3cnn(C)c3)ncc2-c2ccc(OC)c(Cl)c2)c1` [Compound 3, N-(3-((5-(3-chloro-4-methoxyphenyl)-2-((1-methyl-1H-pyrazol-4-yl)amino)pyrimidin-4-yl)amino)-4-fluorophenyl)acrylamide], for which the GI50 in experiment [1] is 103 nM; in experiment [2], 90 nM; in experiment [3] it was 91 nM; in experiment [4], 432 nM. Moreover, the IC50 with A431 cells was 2320 nM.

With `C=CC(=O)Nc1ccc(F)c(Nc2nc(Nc3cnn(C)c3)ncc2-c2ccc(F)c(F)c2)c1` [Compound 5, N-(3-((5-(3,4-difluorophenyl)-2-((1-methyl-1H-pyrazol-4-yl)amino)pyrimidin-4-yl)amino)-4-fluorophenyl)acrylamide], the GI50 was found to be 79 nM in experiment [1], 30 nM in experiment [2], 39 nM in experiment [3] and 208 nM in experiment [4]. Also, in the experiment on A431 cells, the IC50 came to 200 nM.

On to `C=CC(=O)Nc1ccc(F)c(Nc2nc(Nc3cnn(C)c3)ncc2-c2ccc(F)c(Cl)c2)c1` [Compound 6, N-(3-((5-(3-chloro-4-fluorophenyl)-2-((1-methyl-1H-pyrazol-4-yl)amino)pyrimidin-4-yl)amino)-4-fluorophenyl)acrylamide], for which the GI50 in experiment [1] is 83 nM; in experiment [2], 51 nM; in experiment [3], 80 nM; in experiment [4], 187 nM. The IC50 in the experiment on A431 cells was 810 nM.

For `C=CC(=O)Nc1ccc(F)c(Nc2nc(Nc3cnn(C)c3)ncc2-c2ccc(OC)cc2F)c1` [Compound 7, N-(4-fluoro-3-((5-(2-fluoro-4-methoxyphenyl)-2-((1-methyl-1H-pyrazol-4-yl)amino)pyrimidin-4-yl)amino)phenyl)acrylamide], the GI50 worked out at 97 nM in experiment [1], 94 nM in experiment [2], 97 nM in experiment [3] and 377 nM in experiment [4]. Besides, the IC50 in the experiment with A431 cells amounted to 229 nM.

Turning to `C=CC(=O)Nc1ccc(F)c(Nc2nc(Nc3cnn(C)c3)ncc2-c2cc(F)ccc2Cl)c1` [Compound 11, N-(3-((5-(2-chloro-5-fluorophenyl)-2-((1-methyl-1H-pyrazol-4-yl)amino)pyrimidin-4-yl)amino)-4-fluorophenyl)acrylamide], the GI50 was determined as 124 nM in experiment [1], 194 nM in experiment [2], 262 nM in experiment [3] and 1070 nM in experiment [4]. Moreover, in the experiment on A431 cells, the half-inhibitory concentration (IC50) is 1950 nM.

In the case of `C=CC(=O)Nc1ccc(F)c(Nc2nc(Nc3cnn(C)c3)ncc2-c2ccc(OC(F)(F)F)c(F)c2)c1` [Compound 14, N-(4-fluoro-3-((5-(3-fluoro-4-(trifluoromethoxy)phenyl)-2-((1-methyl-1H-pyrazol-4-yl)amino)pyrimidin-4-yl)amino)phenyl)acrylamide], the values for the GI50 in experiment [1], in experiment [3] and in experiment [4] were 59 nM, 26 nM and 107 nM, respectively. The IC50 in the experiment on A431 cells worked out at 140 nM.

Take `C=CC(=O)Nc1cccc(Nc2nc(Nc3cnn(C)c3)ncc2-c2ccc(N(C)C)c(F)c2)c1` [Compound 30, N-(3-((5-(4-(dimethylamino)-3-fluorophenyl)-2-((1-methyl-1H-pyrazol-4-yl)amino)pyrimidin-4-yl)amino)phenyl)acrylamide]: the GI50 in experiment [1] was found to be 40 nM; in experiment [2] it was 35 nM; in experiment [4], 91 nM. Moreover, in the experiment with A431 cells, the IC50 is 299 nM.

As for `C=CC(=O)Nc1ccc(F)c(Nc2nc(Nc3cnn(C)c3)ncc2-c2cc(F)cc(Cl)c2)c1` [Compound 34, N-(3-((5-(3-chloro-5-fluorophenyl)-2-((1-methyl-1H-pyrazol-4-yl)amino)pyrimidin-4-yl)amino)-4-fluorophenyl)acrylamide], the GI50 in experiment [1] came out at 50 nM; in experiment [3] it was 39 nM; in experiment [4], 84 nM. Also, in the experiment on A431 cells, the 50% inhibitory concentration (IC50) came to 303 nM.

`C=CC(=O)Nc1ccc(F)c(Nc2nc(Nc3cnn(C)c3)ncc2-c2cnc(Cl)c(C)c2)c1` [Compound 48, N-(3-((5-(6-chloro-5-methylpyridin-3-yl)-2-((1-methyl-1H-pyrazol-4-yl)amino)pyrimidin-4-yl)amino)-4-fluorophenyl)acrylamide]: the GI50 in experiment [1] is 31 nM; in experiment [4] it was 36 nM. Also, the IC50 with A431 cells was found to be 68 nM.

As to `C=CC(=O)Nc1ccc(F)c(Nc2nc(Nc3cnn(CCO)c3)ncc2-c2ccc(Cl)c(Cl)c2)c1` [Compound 51, N-(3-((5-(3,4-dichlorophenyl)-2-((1-(2-hydroxyethyl)-1H-pyrazol-4-yl)amino)pyrimidin-4-yl)amino)-4-fluorophenyl)acrylamide], the GI50 worked out at 79 nM in experiment [1], 38 nM in experiment [2] and 56 nM in experiment [3]. Further, in the experiment on A431 cells, the IC50 worked out at 110 nM.

`C=CC(=O)Nc1ccc(F)c(Nc2nc(Nc3cnn(C)c3)ncc2-c2ccc(C(F)(F)F)c(Cl)c2)c1` [Compound 54, N-(3-((5-(3-chloro-4-(trifluoromethyl)phenyl)-2-((1-methyl-1H-pyrazol-4-yl)amino)pyrimidin-4-yl)amino)-4-fluorophenyl)acrylamide]: the GI50 in experiment [1] came out at 186 nM; in experiment [2], 85 nM; in experiment [3], 184 nM; in experiment [4], 260 nM.

Turning to `C=CC(=O)Nc1ccc(F)c(Nc2nc(Nc3cnn(C)c3)ncc2-c2ccc(C3=CCN(C)CC3)c(F)c2)c1` [Compound 55, N-(4-fluoro-3-((5-(3-fluoro-4-(1-methyl-1,2,3,6-tetrahydropyridin-4-yl)phenyl)-2-((1-methyl-1H-pyrazol-4-yl)amino)pyrimidin-4-yl)amino)phenyl)acrylamide], the GI50 in experiment [1] is 3640 nM; in experiment [2], 2240 nM; in experiment [3], 800 nM. In addition, the IC50 in the experiment on A431 cells was determined as 2230 nM.

With `C=CC(=O)Nc1cccc(Nc2nc(Nc3cnn(C)c3)ncc2-c2ccc(Cl)c(F)c2)c1` [Compound 68, N-(3-((5-(4-chloro-3-fluorophenyl)-2-((1-methyl-1H-pyrazol-4-yl)amino)pyrimidin-4-yl)amino)phenyl)acrylamide], the GI50 in experiment [1] is 21 nM; in experiment [2], 14 nM; in experiment [3] it was 23 nM. Further, in the experiment with A431 cells, the IC50 was 60 nM.

For `C=CC(=O)Nc1cccc(Nc2nc(Nc3cnn(C)c3)ncc2-c2ccc(OC)c(F)c2)c1` [Compound 69, N-(3-((5-(3-fluoro-4-methoxyphenyl)-2-((1-methyl-1H-pyrazol-4-yl)amino)pyrimidin-4-yl)amino)phenyl)acrylamide], the GI50 in experiment [1] was determined as 21 nM; in experiment [3], 14 nM; in experiment [4], 27 nM. The IC50 in the experiment on A431 cells was 73 nM.

In the case of `C=CC(=O)Nc1ccc(F)c(Nc2nc(Nc3cnn(C)c3)ncc2-c2ccc(N3CCCOCC3)c(F)c2)c1` [Compound 84, N-(4-fluoro-3-((5-(3-fluoro-4-(1,4-oxazepan-4-yl)phenyl)-2-((1-methyl-1H-pyrazol-4-yl)amino)pyrimidin-4-yl)amino)phenyl)acrylamide], the values for the GI50 in experiment [1], in experiment [2] and in experiment [3] were 92 nM, 122 nM and 101 nM, respectively. Further, the IC50 in the experiment on A431 cells is 522 nM.

Consider `C=CC(=O)Nc1ccc(F)c(Nc2nc(Nc3cnn(C)c3)ncc2-c2ccc(Br)c(F)c2)c1` [Compound 87, N-(3-{[5-(4-bromo-3-fluorophenyl)-2-[(1-methyl-1H-pyrazol-4-yl)amino]pyrimidin-4-yl]amino}-4-fluorophenyl) prop-2-enamide], for which the GI50 was 116 nM in experiment [1] and 83 nM in experiment [4]. Besides, the 50% inhibitory concentration (IC50) in the experiment on A431 cells came out at 18 nM.

Take `C=CC(=O)Nc1ccc(F)c(Nc2nc(Nc3cnn(C4COC4)c3)ncc2-c2ccc(Br)c(F)c2)c1` [Compound 94, N-(3-((5-(4-bromo-3-fluorophenyl)-2-((1-(oxetan-3-yl)-1H-pyrazol-4-yl)amino)pyrimidin-4-yl)amino)-4-fluorophenyl)acrylamide]: the GI50 came to 35 nM in experiment [1], 40 nM in experiment [3] and 144 nM in experiment [4]. For the same compound, the IC50 in the experiment on A431 cells was 31 nM.
